Legend:
[1] = system: Pseudomonas aeruginosa ATCC 27853; assay: Minimum inhibitory concentration (MIC), spotting on Müeller–Hinton agar; assay type: cell-based; conditions: Gram − Ve, P. aeruginosa, 37 °C; for Minimum inhibitory concentration, PA: 18 h; for MIC: Pseudomonas aeruginosa, ATCC27853, 18 h, read-out: Minimum inhibitory concentration, PA
Description: (§1) Sterilized Nutrient agar medium was first prepared by dissolving 38 g of Müeller–Hinton agar (MHA) (Biolab, Midrand, Africa) in distilled water (1 L). […] The cooled Agar medium was poured in Petri dishes while ensuring a uniform 4 mm depth of the medium and cooling further to ambient temperature.
(§2) These bacteria were inoculated in a sterilized Nutrient Broth (NB) (Biolab, Midrand, Africa) through streak plate technique and incubated at 37 °C for 18 h. The nutrient broth was sterilized by dissolving 1.3 g in distilled water (100 mL). Ca. 10 mL of the nutrient broth was transferred into a cotton wool-plugged test tubes and wrapped with an aluminium foil. […] Following this was the isolation of a single colony of the bacteria and inoculated into a 10 mL sterile NB which was then incubated in a shaking incubator at 37 °C for 18 h. Each of the bacteria strain concentrations was adjusted with sterile distilled water to get a final concentration of 1.5 × 10^8 cfu/mL, i.e., 0.5 Mc Farland’s Standard using a densitometer (Mc Farland Latvia). The bacteria were lawn inoculated on the set MHA Petri dishes using a sterile cotton swab. Screening of L1–L5 and Q1–Q15 for antibacterial activity was first carried out by spotting 5 µL of their solution (prepared from the dissolution of 1000 µg of the L1–L5 and Q1–Q15 in 1 mL dimethyl sulfoxide (DMSO)) on an MHA petri dish and incubated at 37 °C for 18 h. The antibacterial activity was determined by looking out for a clear zone at the spotting point.

[2] = Ferric reducing antioxidant power (FRAP) assay; assay type: biochemical; conditions: done in triplicate
Excerpt: Antioxidants are important in protecting the human body against damage by reactive oxygen species (ROS). Accumulation of ROS in the cells may lead to damage of the DNA, RNA, and proteins which subsequently leads to several physiological disorders such as cardiovascular disease, diabetes, rheumatism, atherosclerosis, cancer, aging and cell death. […] The free radical scavenging ability of all ligands and complexes in this study were investigated using ferric reducing antioxidant power (FRAP). In antioxidant studies, FRAP assay is often preferred because it is simple, fast, economical, and direct in antioxidant measurement. FRAP assay is based on the electron-donating ability of an antioxidant compound. This involves the reduction of a colorless Fe^3+ tripyridyltriazine complex (Fe^3+ (TPTZ)) to an intense blue-colored Fe^2+ tripyridyltriazine complex (Fe^2+ (TPTZ)) by the electron-donating antioxidants at low pH [69]. The reducing power is to determine the reductive ability of the test compounds.
Antioxidant activity studies of L1–L5 and Q1–Q15 were done using ferric reducing antioxidant power (FRAP) assay. The ferric reducing antioxidant power assay is often used to evaluate the ability of an antioxidant to donate an electron. […] The resulting mixture was incubated at 50 °C for 20 min, and 2.5 mL of 10% trichloroacetic acid was added to acidify the mixture. After that, 1 mL of the acidified mixture was added to 1 mL of distilled water and 0.5 mL of 0.1% FeCl3. The absorbance of the resulting solution was then measured at 700 nm. The antioxidant power of the compounds was expressed as a percentage of ferric reducing antioxidant power Ascorbic acid equivalent, as shown in Equation (4). (4) % FRAP =Absorbance of Absorbance of Sample/Absorbance of Ascorbic Acid ×100

calf thymus DNA (CT-DNA) = assay: CT-DNA electronic absorption titration (Wolfe–Shimer); assay type: binding; conditions: intrinsic binding constant, absorption titration, PBS pH 7.2
Description: The interaction of the L1–L5 and complexes Q1–Q15 with calf thymus-DNA was carried out in a Phosphate buffer saline solution pH 7.2 stored at 4 °C. The DNA stock solution was prepared by dissolving CT-DNA sodium salt in Phosphate buffer saline solution with continuous stirring overnight. It was filtered and stored at 4 °C and used within four days. […] A fixed amount of the L1–L5 and complexes Q1–Q15 (50 µM) were prepared by dissolving an appropriate amount in DMSO. […] Therefore, in all the experimental of the interaction of L1–L5 and complexes Q1–Q15 with biomolecules, the final concentration of DMSO in the incubation mixture was ~2% (v/v).
The binding modes of L1–L5 and complexes Q1–Q15 to CT-DNA were characterized through electronic absorption titration by varying concentrations of CT-DNA (0–30 µM) in phosphate buffer saline solution against fixed concentrations (20 µM) of L1–L5 and complexes Q1–Q15. […] The absorbance of CT-DNA is cancelled by adding equivalent amounts of CT-DNA to both the tested compounds and the reference solutions.

[3] = system: Salmonella typhimurium ATCC 14026; assay: Minimum inhibitory concentration (MIC), spotting on Müeller–Hinton agar; assay type: cell-based; conditions: Salmonella enterica; Gram − Ve; S. typhi; 37 °C, 18 h; read-out: Minimum inhibitory concentration, ST
Description: as §1, §2

[4] = system: Escherichia coli ATCC 25922; assay: as above; assay type: cell-based; conditions: Escherichia coli, ATCC25922; Gram − Ve; E. coli; 37 °C, 18 h; read-out: Minimum inhibitory concentration, EC
Description: as §1, §2

[5] = system: Staphylococcus aureus ATCC 700699 (methicillin-resistant); assay: as above; assay type: cell-based; conditions: Staphylococcus aureus, ATCC 700699 / MRSA; Gram + Ve; methicillin-resistant S. aureus; 37 °C, 18 h
Description: as §1, §2

Row | SMILES | Minimum inhibitory concentration, PA [1] | MIC [1] | Antioxidant (IC50 mg/mL) FRAP [2] | CT-DNA-Cmp. Kb (M^−1) × 10^5 (calf thymus DNA (CT-DNA)) | MIC [3] | MIC [4] | MIC [5]
1 | c1ccc2nc(-c3nc4ccccc4s3)ccc2c1 [Complex L2, 2-(quinolin-2-yl)benzo[d]thiazole] | 100 µg/mL | 50 to 100 µg/mL | 2.29 ± 0.0041 mg/mL | 1.50 (M^−1) × 10^5 |  |  | 
2 | Cc1ccc(/N=C/c2ccc3ccccc3n2)cc1 [Complex L4, (E)-1-(quinolin-2-yl)-N-(p-tolyl)methanimine] |  |  | 4.50 ± 0.0053 mg/mL | 1.60 (M^−1) × 10^5 | 1000 µg/mL | 1000 µg/mL | 
3 | C(=N\Cc1cccs1)/c1ccc2ccccc2n1 [Complex L5, (E)-1-(quinolin-2-yl)-N-(thiophen-2-ylmethyl)methanimine] |  | 100 µg/mL | 3.79 ± 0.0052 mg/mL | 1.17 (M^−1) × 10^5 | 50 µg/mL |  | 
4 | Clc1ccc(/N=C/c2ccc3ccccc3n2)cc1 [Complex L3, (E)-N-(4-chlorophenyl)-1-(quinolin-2-yl)methanimine] | 100 µg/mL | 50 to 100 µg/mL | 20.35 ± 0.0047 mg/mL |  |  |  | 1000 µg/mL
5 | O=C1O[C@H]([C@@H](O)CO)C(O)=C1O [Ascorbic Acid, Ascorbic acid, reference compound] |  |  | 2.68 ± 0.11 mg/mL |  |  |  | 
